Source: BindingDB's records for doi:10.1124/mol.52.3.337 (The Schering Plough Research Institute, 1997)
Non-standard residues stand in square brackets, D forms with d. Residues, ends and D or L forms follow the SMILES beside them.

These compounds were tested against T1, Galanin receptor type 2 (Rattus norvegicus, UniProt O08726).
T1 sequence (O08726 whole entry): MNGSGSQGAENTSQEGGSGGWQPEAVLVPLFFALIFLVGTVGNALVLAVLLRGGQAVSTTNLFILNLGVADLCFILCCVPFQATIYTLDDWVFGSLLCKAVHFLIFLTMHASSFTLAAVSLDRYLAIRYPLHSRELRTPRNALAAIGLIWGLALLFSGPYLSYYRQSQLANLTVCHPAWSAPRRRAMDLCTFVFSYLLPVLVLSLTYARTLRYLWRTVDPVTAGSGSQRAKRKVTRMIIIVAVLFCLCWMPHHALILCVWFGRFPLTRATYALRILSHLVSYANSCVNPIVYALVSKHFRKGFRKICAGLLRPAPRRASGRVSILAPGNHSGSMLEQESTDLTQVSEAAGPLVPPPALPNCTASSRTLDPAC

Compound	Ki [nM]
CC(C)C[C@H](NC(=O)[C@H](CC(C)C)NC(=O)[C@@H](Cc1c[nH]c2ccccc12)NC(=O)[C@H](Cc1ccccc1)NC(=O)[C@@H](Cc1c[nH]c2ccccc12)NC(=O)[C@H](CCC(N)=O)NC(=O)[C@H](CCC(N)=O)NC(=O)[C@@H]1CCCN1C(=O)[C@H](CCCCN)NC(=O)[C@@H]1CCCN1C(=O)[C@@H](CCCNC(=N)N)NC(=O)[C@@H]1CCCN1C(=O)CNC(=O)[C@H](CC(C)C)NC(=O)[C@H](CC(C)C)NC(=O)[C@H](Cc1ccc(O)cc1)NC(=O)CNC(=O)[C@H](C)NC(=O)[C@H](CO)NC(=O)[C@H](CC(N)=O)NC(=O)[C@H](CC(C)C)NC(=O)[C@@H](NC(=O)[C@H](Cc1c[nH]c2ccccc12)NC(=O)CN)[C@@H](C)O)C(N)=O [Gal(1-13)-Std I] (H-GWTLNSAGYLLGP[dR]PKPQQ[dW]F[dW]LL-NH2)	9.1
H-ELEPEDEARPGGFDRLQSQDKAIRTIMEFLAFLHLKEAGAL-NH2 [GMAP (1-41)]	840
H-GWTLNSAGYLLGPPPALALA-NH2 [M40]	18
